Measured values taken from PubChem BioAssay AID1963421 (Molecular Pharmacology Branch, DTP, NCI, 2024).

Tested on: 519858-162-T-J1-PDC complex spheroid growth, % test/control
Assay: Anticancer human tumor 519858-162-T-J1-PDC patient-derived colon adenocarcinoma cell line growth inhibition [Asc]
Details: for IC50: curve of first compound; for viability, T/C: stronger effect = lower value
Procedure: Multicellular complex tumor spheroid response to apoptosis pathway targeting inhibitors Alrizomadlin, Pelcitoclax, and Dasminapant in combination with a variety of drugs and investigational agents in selected tumor cell lines
The MDM2 inhibitor alrizomadlin, the Bcl-2/Bcl-xL inhibitor pelcitoclax, and the IAPs inhibitor dasminapant were evaluated both individually and in combination with standard of care and investigational anticancer small molecules within a complex spheroid model of solid tumors. . Complex spheroids include a stromal component modeled by human endothelial cells (HUVEC) and fibroblasts modeled by human mesenchymal stem cells (MSCs). The concentration ranges selected for each drug and investigational agent were based upon clinically achievable concentrations if the clinical Cmax of the agent was known.
Compounds. The drugs and investigational agents: alrizomadlin (APG-115; NSC831270), pelcitoclax (APG-1252; NSC835773), dasminapant (APG-1387;NSC834197), TAK-243 (NSC785004), copanlisib (NSC809693), olaparib (NSC753686), talazoparib (NSC767125), cobimetinib (NSC 768068), eltanexor (KPT-8602, NSC 794443), abemaciclib (NSC 768073), sotorasib (NSC818433), adagrasib (NSC 831453), MRTX-1133 (NSC 836407), Iadademestat (ORY1001, NSC 806812), and RMC-4630 (NSC839698), were obtained from the NCI Developmental Therapeutics Program Chemical Repository. The FDA-approved anticancer drug set is available from the Developmental Therapeutics Program at https://dtp.cancer.gov/organization/dscb/obtaining/available plates.htm. […] The stock solutions were prepared in dimethyl sulfoxide (DMSO, Sigma-Aldrich, St. Louis, MO, cat. D2650) at 800-fold the tested concentration and stored at -70 degrees C prior to their use. All drugs and investigational agents were tested over a range starting from a high concentration at or near the clinical Cmax and decreasing in half-log increments. If the clinical Cmax for an agent had not been determined, the highest concentration tested was 10 microM.
The patient-derived cancer (PDC) cell lines include five colon adenocarcinomas: 186277-243-T-J2-PDC, 616215-338-R-J1-PDC, 439559-082-T-J2-PDC, 463943-066-T-J2-PDC, and 519858-162-T-J1-PDC; three pancreatic carcinomas: 323965-272-R-J2-PDC, 521955-158-R6-J3-PDC, and 521955-158-R2-J5-PDC; two uterine sarcomas: 327498-152-R-J2-PDC and 993429-296-R-J1-PDC; two rhabdomyosarcomas: 755483-174-R-J1-PDC and 772245-204-R-J1-PDC; two soft tissue sarcomas: 126254-015-R-J1-PDC and 494315-158-R-J1-PDC; two malignant fibrous histiocytomas: 317291-083-R-J1-PDC and 596521-263-R-J1-PDC; two breast carcinomas: 171881-019-R-J1-PDC and 885512-296-R-J2-PDC; and one ovarian carcinoma: 6556581-035-R-J-PDC were obtained from the NCI PDMR, (https://pdmr.cancer.gov). The established cell lines HSSY-2 synovial sarcoma (RRID:CVCL 8719), SYO-1 synovial sarcoma (RRID:CVCL_7146), MPNST malignant peripheral neural sheath tumor were obtained from the Sloan Kettering Institute. The following established cell lines were purchased from the American Type Culture Collection (ATCC, Manassas, VA), Sor the received from the NCI repository:, PANC-1 pancreatic carcinoma (CRL-1469, RRID:CVCL_0480), OVCAR-5 ovarian carcinoma (RRID:CVCL_1628), OVCAR-8 ovarian carcinoma (RRID:CVCL_1629), , MCF-7 breast carcinoma (CRL-12584, RRID:CVCL_0031), MDA-MB-231 breast carcinoma (CRL-12532, RRID:CVCL_0062), NCI-H1876 small cell lung carcinoma (CRL-5902, RRID:CVCL_1503), NCI-H510A small cell lung carcinoma (HTB-184, RRID:CVCL_1565), NCI-H1417 (CRL-5869, RRID:CVCL_1469), and NCI-H196 small cell lung carcinoma (CRL-5823, RRID:CVCL_1509). Dr. Peter Houghton (Greehey Children's Cancer Research Institute, University of Texas Health Science Center, San Antonio, TX) provided Rh-18 rhabdomyosarcoma (RRID:CVCL_1659). Pooled donor human umbilical vein endothelial cells (HUVEC, Lonza, cat. CC-2519) and human mesenchymal stem cells (hMSC, Lonza, cat. PT-2501) were purchased from Lonza (Walkersville, MD).
Cell Culture. […]

[1] = second compound 0.0316 µM, first compound 0.0316 µM
[2] = second compound 0.0316 µM, first compound 0.1 µM
[3] = second compound 0.0316 µM, first compound 0.316 µM
[4] = second compound 0.0316 µM, first compound 1 µM
[5] = second compound 0.0316 µM, first compound 3.16 µM
[6] = second compound 0.0316 µM, first compound 10 µM
[7] = second compound 0.1 µM, first compound 0.0316 µM
[8] = second compound 0.1 µM, first compound 0.1 µM
[9] = second compound 0.1 µM, first compound 0.316 µM
[10] = second compound 0.1 µM, first compound 1 µM
[11] = second compound 0.1 µM, first compound 3.16 µM
[12] = second compound 0.1 µM, first compound 10 µM
[13] = second compound 0.316 µM, first compound 0.0316 µM
[14] = second compound 0.316 µM, first compound 0.1 µM
[15] = second compound 0.316 µM, first compound 0.316 µM
[16] = second compound 0.316 µM, first compound 1 µM
[17] = second compound 0.316 µM, first compound 3.16 µM
[18] = second compound 0.316 µM, first compound 10 µM
[19] = second compound 1 µM, first compound 0.0316 µM
[20] = second compound 1 µM, first compound 0.1 µM
[21] = second compound 1 µM, first compound 0.316 µM
[22] = second compound 1 µM, first compound 1 µM
[23] = second compound 1 µM, first compound 3.16 µM
[24] = second compound 1 µM, first compound 10 µM
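Also: seven day drug exposure begun three days after spheroid seeding.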
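For viability, T/C in this document: 100% = DMSO vehicle wells and lower values mean less viable spheroid.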

SMILES: O=C(c1cc(Cc2n[nH]c(=O)c3ccccc23)ccc1F)N1CCN(C(=O)C2CC2)CC1 + CNC(C)C(=O)NC1CN(S(=O)(=O)c2cccc(S(=O)(=O)N3CCC4CCC(C(=O)NC(c5ccccc5)c5ccccc5)N4C(=O)C(NC(=O)C(C)NC)C3)c2)CCC2CCC(C(=O)NC(c3ccccc3)c3ccccc3)N2C1=O
- IC50 (second compound 0.00316 µM): > 10 µM
- IC50 (second compound 0.01 µM): > 10 µM
- IC50 (second compound 0.0316 µM): > 10 µM
- IC50 (second compound 0.1 µM): > 10 µM
- IC50 (second compound 0.316 µM): > 10 µM
- IC50 (second compound 1 µM): > 10 µM
- viability, T/C (second compound 0.00316 µM, first compound 0.0316 µM): 61.5%
- viability, T/C (second compound 0.00316 µM, first compound 0.1 µM): 57.1%
- viability, T/C (second compound 0.00316 µM, first compound 0.316 µM): 55%
- viability, T/C (second compound 0.00316 µM, first compound 1 µM): 66.5%
- viability, T/C (second compound 0.00316 µM, first compound 3.16 µM): 72.8%
- viability, T/C (second compound 0.00316 µM, first compound 10 µM): 65.1%
- viability, T/C (second compound 0.01 µM, first compound 0.0316 µM): 127%
- viability, T/C (second compound 0.01 µM, first compound 0.1 µM): 98.8%
- viability, T/C (second compound 0.01 µM, first compound 0.316 µM): 103%
- viability, T/C (second compound 0.01 µM, first compound 1 µM): 89.4%
- viability, T/C (second compound 0.01 µM, first compound 3.16 µM): 114%
- viability, T/C (second compound 0.01 µM, first compound 10 µM): 87%
- viability, T/C [1]: 96.9%
- viability, T/C [2]: 73.4%
- viability, T/C [3]: 91.3%
- viability, T/C [4]: 91.1%
- viability, T/C [5]: 84.5%
- viability, T/C [6]: 88.3%
- viability, T/C [7]: 97.9%
- viability, T/C [8]: 83.2%
- viability, T/C [9]: 89.7%
- viability, T/C [10]: 84.9%
- viability, T/C [11]: 94.4%
- viability, T/C [12]: 76.4%
- viability, T/C [13]: 68.4%
- viability, T/C [14]: 86.6%
- viability, T/C [15]: 117%
- viability, T/C [16]: 97.7%
- viability, T/C [17]: 100%
- viability, T/C [18]: 95%
- viability, T/C [19]: 80.7%
- viability, T/C [20]: 84.9%
- viability, T/C [21]: 106%
- viability, T/C [22]: 99.3%
- viability, T/C [23]: 78.1%
- viability, T/C [24]: 95.3%

SMILES: C=C(F)C(=O)N1CCN(c2nc(OCC3CCCN3C)nc3c2CCN(c2cccc4cccc(Cl)c24)C3)CC1CC#N (centres undefined) + Cc1c(S(C)(=O)=O)c(-c2cc(F)cc(N3CCN(c4ccc(NS(=O)(=O)c5ccc(NC(CCN6CCC(C(=O)OCCCP(=O)(O)O)CC6)CSc6ccccc6)c(S(=O)(=O)C(F)(F)F)c5)cc4)CC3)c2)c(-c2ccc(Cl)cc2)n1C(C)C
- IC50 (second compound 0.0316 µM): < 0.0316 µM
- IC50 (second compound 0.1 µM): 9.04 µM
- IC50 (second compound 0.316 µM): 6.37 µM
- IC50 (second compound 1 µM): 5.09 µM
- IC50 (second compound 3.16 µM): 2.51 µM
- IC50 (second compound 10 µM): 2.69 µM
- viability, T/C [1]: 43.8%
- viability, T/C [2]: 78.2%
- viability, T/C [3]: 94.3%
- viability, T/C [4]: 98.9%
- viability, T/C [5]: 82.6%
- viability, T/C [6]: 64.9%
- viability, T/C [7]: 115%
- viability, T/C [8]: 111%
- viability, T/C [9]: 103%
- viability, T/C [10]: 89%
- viability, T/C [11]: 84.8%
- viability, T/C [12]: 45.3%
- viability, T/C [13]: 95.9%
- viability, T/C [14]: 102%
- viability, T/C [15]: 88%
- viability, T/C [16]: 70.2%
- viability, T/C [17]: 61.9%
- viability, T/C [18]: 43.5%
- viability, T/C [19]: 102%
- viability, T/C [20]: 84.7%
- viability, T/C [21]: 116%
- viability, T/C [22]: 86.5%
- viability, T/C [23]: 62.8%
- viability, T/C [24]: 33.2%
- viability, T/C (second compound 3.16 µM, first compound 0.0316 µM): 86.9%
- viability, T/C (second compound 3.16 µM, first compound 0.1 µM): 74.1%
- viability, T/C (second compound 3.16 µM, first compound 0.316 µM): 81.8%
- viability, T/C (second compound 3.16 µM, first compound 1 µM): 61.1%
- viability, T/C (second compound 3.16 µM, first compound 3.16 µM): 47.9%
- viability, T/C (second compound 3.16 µM, first compound 10 µM): 13.5%
- viability, T/C (second compound 10 µM, first compound 0.0316 µM): 86.7%
- viability, T/C (second compound 10 µM, first compound 0.1 µM): 66.5%
- viability, T/C (second compound 10 µM, first compound 0.316 µM): 72.4%
- viability, T/C (second compound 10 µM, first compound 1 µM): 62.3%
- viability, T/C (second compound 10 µM, first compound 3.16 µM): 51.4%
- viability, T/C (second compound 10 µM, first compound 10 µM): 3.12%
